Measured values published in US8450313B2, “2,3-diaryl- or heteroaryl-substituted 1,1,1-trifluoro-2-hydroxypropyl compounds” (Hoffmann-La Roche Inc., priority 2009, dated 2013).

These molecules were tested against T1, full length human recombinant glucocorticoid receptor (Homo sapiens, UniProt P04150) (assay: Glucocorticoid Receptor Binding Assay (Glucocorticoid Receptor Competitor Assay far red kit, fluorescence polarization)). Settings: competition with fluorescent GR ligand Fluormone GS Far Red, 3 hours at 22° C., pH 7.4; Ki calculated from IC50 by Cheng-Prusoff.
T1 construct: It contains some partially purified full length human recombinant glucocorticoid receptor; purchased Panvera/Invitrogen PV4302
T1 sequence (P04150 1-777): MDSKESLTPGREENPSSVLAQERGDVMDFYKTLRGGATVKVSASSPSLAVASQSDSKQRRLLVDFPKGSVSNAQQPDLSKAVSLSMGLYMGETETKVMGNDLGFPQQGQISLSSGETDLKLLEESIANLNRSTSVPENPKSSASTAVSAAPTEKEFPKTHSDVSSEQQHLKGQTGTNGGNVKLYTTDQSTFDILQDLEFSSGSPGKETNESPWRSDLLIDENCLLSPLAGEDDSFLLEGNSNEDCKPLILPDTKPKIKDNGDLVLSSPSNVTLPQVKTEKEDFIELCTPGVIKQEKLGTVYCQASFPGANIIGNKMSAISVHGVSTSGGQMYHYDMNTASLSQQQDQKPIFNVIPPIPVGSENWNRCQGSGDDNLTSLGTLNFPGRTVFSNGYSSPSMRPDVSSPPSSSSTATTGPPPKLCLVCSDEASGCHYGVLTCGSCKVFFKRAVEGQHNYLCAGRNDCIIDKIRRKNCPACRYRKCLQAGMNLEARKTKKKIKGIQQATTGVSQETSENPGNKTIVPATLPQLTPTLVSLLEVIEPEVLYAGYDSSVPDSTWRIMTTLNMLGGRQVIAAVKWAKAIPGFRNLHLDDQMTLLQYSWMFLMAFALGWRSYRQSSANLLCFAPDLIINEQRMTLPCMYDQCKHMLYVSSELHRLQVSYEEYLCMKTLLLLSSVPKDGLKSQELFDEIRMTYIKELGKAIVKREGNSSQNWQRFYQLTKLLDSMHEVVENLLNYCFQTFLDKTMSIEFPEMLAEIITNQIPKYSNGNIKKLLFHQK
How it was run: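 Compounds in serial dilution (from intermediate 4.2% DMSO stock) displace Fluormone GS Far Red from full-length human recombinant GR with stabilizing peptide, pH 7.4, incubated 3 hours at 22° C dark. Polarized fluorescence (610–660 nm) gives IC50 via sigmoidal fit, converted to Ki by Cheng-Prusoff.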

Row | SMILES | Ki [nM]
1 | CCN1C(=O)COc2ccc([C@](O)([C@H](C)c3ccc(-c4ccc(Cl)c(C(=O)O)c4)cc3Cl)C(F)(F)F)cc21 (relative stereo) [Example 66, 4,3′-Dichloro-4′-[2-(4-ethyl-3-oxo-3,4-dihydro-2H-benzo[1,4]oxazin-6-yl)-3,3,3-trifluoro-2-hydroxy-1-methyl-propyl]-biphenyl-3-carboxylic acid] | 191
2 | CCN1C(=O)COc2ccc([C@](O)([C@H](C)c3ccc(-c4ccc(F)c(C(=O)O)c4)cc3Cl)C(F)(F)F)cc21 (relative stereo) [Example 67, 3′-Chloro-4′-[2-(4-ethyl-3-oxo-3,4-dihydro-2H-benzo[1,4]oxazin-6-yl)-3,3,3-trifluoro-2-hydroxy-1-methyl-propyl]-4-fluoro-biphenyl-3-carboxylic acid] | 40.2
3 | CCN1C(=O)COc2ccc([C@](O)([C@H](C)c3ccc(Oc4cc(C(F)(F)F)c(C(=O)O)cn4)cc3Cl)C(F)(F)F)cc21 (relative stereo) [Example 68, 6-{3-Chloro-4-[2-(4-ethyl-3-oxo-3,4-dihydro-2H-benzo[1,4]oxazin-6-yl)-3,3,3-trifluoro-2-hydroxy-1-methyl-propyl]-phenoxy}-4-trifluoromethyl-nicotinic acid] | 59.8
4 | CCN1C(=O)COc2ccc([C@@](O)([C@@H](C)c3ccc(Oc4ccc(C(=O)O)c(Cl)n4)cc3Cl)C(F)(F)F)cc21 (relative stereo) [Example 69, 2-Chloro-6-{3-chloro-4-[2-(4-ethyl-3-oxo-3,4-dihydro-2H-benzo[1,4]oxazin-6-yl)-3,3,3-trifluoro-2-hydroxy-1-methyl-propyl]-phenoxy}-nicotinic acid] | 35.9
5 | COC(=O)c1ccc(-c2ccc([C@@H](C)[C@@](O)(c3ccc4c(c3)NC(=O)CO4)C(F)(F)F)c(Cl)c2)cc1F (relative stereo) [Example 71, 3′-Chloro-3-fluoro-4′-[3,3,3-trifluoro-2-hydroxy-1-methyl-2-(3-oxo-3,4-dihydro-2H-benzo[1,4]oxazin-6-yl)-propyl]-biphenyl-4-carboxylic acid methyl ester] | 28.1
6 | C[C@H](c1ccc(-c2ccc(C(=O)O)c(F)c2)cc1Cl)[C@@](O)(c1ccc2c(c1)NC(=O)CO2)C(F)(F)F (relative stereo) [Example 72, 3′-Chloro-3-fluoro-4′-[3,3,3-trifluoro-2-hydroxy-1-methyl-2-(3-oxo-3,4-dihydro-2H-benzo[1,4]oxazin-6-yl)-propyl]-biphenyl-4-carboxylic acid] | 222
7 | C[C@H](c1ccc(-c2ccc(C(=O)O)nc2)cc1Cl)[C@@](O)(c1ccc2c(c1)n(C)c(=O)n2C)C(F)(F)F (relative stereo) [Example 84, 5-{3-Chloro-4-[2-(1,3-dimethyl-2-oxo-2,3-dihydro-1H-benzoimidazol-5-yl)-3,3,3-trifluoro-2-hydroxy-1-methyl-propyl]-phenyl}-pyridine-2-carboxylic acid] | 11.9
8 | C[C@H](c1ccc(Oc2ccccc2C(=O)O)cc1Cl)[C@@](O)(c1ccc2c(c1)n(C)c(=O)n2C)C(F)(F)F (relative stereo) [Example 96, 2-{3-Chloro-4-[2-(1,3-dimethyl-2-oxo-2,3-dihydro-1H-benzoimidazol-5-yl)-3,3,3-trifluoro-2-hydroxy-1-methyl-propyl]-phenoxy}-benzoic acid] | 2.4
9 | COc1cc(Oc2ccc([C@@H](C)[C@@](O)(c3ccc4c(c3)n(C)c(=O)n4C)C(F)(F)F)c(Cl)c2)ccc1C(=O)O (relative stereo) [Example 97, 4-{3-Chloro-4-[2-(1,3-dimethyl-2-oxo-2,3-dihydro-1H-benzoimidazol-5-yl)-3,3,3-trifluoro-2-hydroxy-1-methyl-propyl]-phenoxy}-2-methoxy-benzoic acid] | 5

Now from value to molecule:

Row | Ki [nM] | SMILES
10 | 1.6 | C[C@H](c1ccc(Oc2ccc(C(=O)O)cc2)cc1Cl)[C@@](O)(c1ccc2c(c1)n(C)c(=O)n2C)C(F)(F)F (relative stereo) [Example 98, 4-{3-Chloro-4-[2-(1,3-dimethyl-2-oxo-2,3-dihydro-1H-benzoimidazol-5-yl)-3,3,3-trifluoro-2-hydroxy-1-methyl-propyl]-phenoxy}-benzoic acid]
11 | 1.2 | C[C@H](c1ccc(Oc2cccc(C(=O)O)c2)cc1Cl)[C@@](O)(c1ccc2c(c1)n(C)c(=O)n2C)C(F)(F)F (relative stereo) [Example 99, 3-{3-Chloro-4-[2-(1,3-dimethyl-2-oxo-2,3-dihydro-1H-benzoimidazol-5-yl)-3,3,3-trifluoro-2-hydroxy-1-methyl-propyl]-phenoxy}-benzoic acid]
12 | 0.5 | C[C@@H](c1ccc(Oc2cc(C(F)(F)F)c(C(=O)O)cn2)cc1Cl)[C@](O)(c1ccc2c(c1)n(C)c(=O)n2C)C(F)(F)F (relative stereo) [Example 102, 6-{3-Chloro-4-[2-(1,3-dimethyl-2-oxo-2,3-dihydro-1H-benzoimidazol-5-yl)-3,3,3-trifluoro-2-hydroxy-1-methyl-propyl]-phenoxy}-4-trifluoromethyl-nicotinic acid]
13 | 23.1 | C[C@H](c1ccc(Oc2ccc(C(=O)O)c(Cl)c2)cc1Cl)[C@](O)(c1ccc2c(c1)OCO2)C(F)(F)F (relative stereo) [Example 103, 4-[4-(2-Benzo[1,3]dioxol-5-yl-3,3,3-trifluoro-2-hydroxy-1-methyl-propyl)-3-chloro-phenoxy]-2-chloro-benzoic acid]
14 | 5.2 | C[C@H](c1ccc(Oc2cnc(C(=O)O)cn2)cc1Cl)[C@@](O)(c1ccc2c(c1)n(C)c(=O)n2C)C(F)(F)F (relative stereo) [Example 106, 5-{3-Chloro-4-[2-(1,3-dimethyl-2-oxo-2,3-dihydro-1H-benzoimidazol-5-yl)-3,3,3-trifluoro-2-hydroxy-1-methyl-propyl]-phenoxy}-pyrazine-2-carboxylic acid]
15 | 354 | C[C@H](c1ccc(-c2ccc(C(=O)O)c(F)c2)cc1Cl)[C@@](O)(c1ccc2[nH]c(=O)[nH]c2c1)C(F)(F)F (relative stereo) [Example 114, 3′-Chloro-3-fluoro-4′-[3,3,3-trifluoro-2-hydroxy-1-methyl-2-(2-oxo-2,3-dihydro-1H-benzoimidazol-5-yl)-propyl]-biphenyl-4-carboxylic acid]
16 | 1 | C[C@H](c1ccc(Br)cc1Cl)[C@@](O)(c1ccc2oc(=O)n(C)c2c1)C(F)(F)F (relative stereo) [Example 116, 5-[2-(4-Bromo-2-chloro-phenyl)-1-hydroxy-1-trifluoromethyl-propyl]-3-methyl-3H-benzooxazol-2-one]
17 | 2.2 | COC(=O)c1ccc(-c2ccc([C@@H](C)[C@@](O)(c3ccc4oc(=O)n(C)c4c3)C(F)(F)F)c(Cl)c2)cc1F (relative stereo) [Example 117, 3′-Chloro-3-fluoro-4′-[3,3,3-trifluoro-2-hydroxy-1-methyl-2-(3-methyl-2-oxo-2,3-dihydro-benzooxazol-5-yl)-propyl]-biphenyl-4-carboxylic acid methyl ester]
18 | 1.6 | CCOC(=O)c1cc(-c2ccc([C@H](C)[C@](O)(c3ccc4oc(=O)n(C)c4c3)C(F)(F)F)c(Cl)c2)ccc1F (relative stereo) [Example 121, 3′-Chloro-4-fluoro-4′-[3,3,3-trifluoro-2-hydroxy-1-methyl-2-(3-methyl-2-oxo-2,3-dihydro-benzooxazol-5-yl)-propyl]-biphenyl-3-carboxylic acid ethyl ester]
19 | 0.5 | C[C@H](c1ccc(-c2ccc(F)c(C(=O)O)c2)cc1Cl)[C@@](O)(c1ccc2oc(=O)n(C)c2c1)C(F)(F)F (relative stereo) [Example 122, 3′-Chloro-4-fluoro-4′-[3,3,3-trifluoro-2-hydroxy-1-methyl-2-(3-methyl-2-oxo-2,3-dihydro-benzooxazol-5-yl)-propyl]-biphenyl-3-carboxylic acid]
20 | 1.1 | COC(=O)c1ccc(-c2ccc([C@@H](C)[C@@](O)(c3ccc4oc(=O)n(C)c4c3)C(F)(F)F)c(Cl)c2)cc1Cl (relative stereo) [Example 123, 3,3′-Dichloro-4′-[3,3,3-trifluoro-2-hydroxy-1-methyl-2-(3-methyl-2-oxo-2,3-dihydro-benzooxazol-5-yl)-propyl]-biphenyl-4-carboxylic acid methyl ester]
21 | 0.3 | C[C@H](c1ccc(-c2ccc(C(=O)O)c(Cl)c2)cc1Cl)[C@@](O)(c1ccc2oc(=O)n(C)c2c1)C(F)(F)F (relative stereo) [Example 124, 3,3′-Dichloro-4′-[3,3,3-trifluoro-2-hydroxy-1-methyl-2-(3-methyl-2-oxo-2,3-dihydro-benzooxazol-5-yl)-propyl]-biphenyl-4-carboxylic acid]
